Source: PubChem BioAssay (NCI)
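Results reflect a 48-hour exposure of cells in 96-well plates to compound at five concentrations. TGI marks complete inhibition of growth.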

Legend:
Experiment in all cases: NCI tumour cell line growth inhibition, 48 h
[1] = test system: A549 NSCLC
[2] = test system: ACHN renal
[3] = test system: CCRF-CEM leukemia
[4] = test system: COLO 205 colon
[5] = test system: DLD-1 colon
[6] = test system: DMS 114 small cell lung
[7] = test system: DMS 273 small cell lung
[8] = test system: EKVX NSCLC
[9] = test system: HCC-2998 colon
[10] = test system: HCT-116 colon
[11] = test system: HCT-15 colon
[12] = test system: HL-60(TB) leukemia
[13] = test system: HOP-18 NSCLC
[14] = test system: HOP-62 NSCLC
[15] = test system: HOP-92 NSCLC
[16] = test system: HT29 colon
[17] = test system: IGROV1 ovarian
[18] = test system: K-562 leukemia
[19] = test system: KM12 colon
[20] = test system: KM20L2 colon
[21] = test system: LOX IMVI melanoma
[22] = test system: LXFL 529 NSCLC
[23] = test system: M14 melanoma
[24] = test system: M19-MEL melanoma
[25] = test system: MALME-3M melanoma
[26] = test system: MOLT-4 leukemia
[27] = test system: NCI-H226 lung
[28] = test system: NCI-H23 lung
[29] = test system: NCI-H460 lung
[30] = test system: NCI-H522 lung
[31] = test system: OVCAR-3 ovarian
[32] = test system: OVCAR-4 ovarian
[33] = test system: OVCAR-5 ovarian
[34] = test system: OVCAR-8 ovarian
[35] = test system: RXF-631 renal
[36] = test system: SF-268 CNS
[37] = test system: SF-295 CNS
[38] = test system: SF-539 CNS
[39] = test system: SK-MEL-2 melanoma
[40] = test system: SK-MEL-28 melanoma
[41] = test system: SK-OV-3 ovarian
[42] = test system: SN12C renal
[43] = test system: SNB-19 CNS
[44] = test system: SNB-75 CNS
[45] = test system: SNB-78 CNS
[46] = test system: SW-620 colon
[47] = test system: U251 CNS
[48] = test system: UACC-257 melanoma
[49] = test system: UACC-62 melanoma
[50] = test system: UO-31 renal
[51] = test system: XF 498 CNS
[52] = test system: 786-0 renal
[53] = test system: A498 renal
[54] = test system: CAKI-1 renal
[55] = test system: RPMI-8226 leukemia
[56] = test system: RXF 393 renal
[57] = test system: SK-MEL-5 melanoma
[58] = test system: TK-10 renal

Measured: TGI

Cc1cn([C@@H]2C[C@H](CO)[C@@H](O)C2)c(=O)[nH]c1=O
not listed: [52] | [53] | [54] | [55] | [56] | [57] | [58]
> 100 µM: all other assays above

NC(=O)C(=O)CC(=O)c1ccccc1NC1=CC(=O)C(=O)c2ccccc21
> 75.7 µM: [48]
36.1 µM: [21]
> 72.4 µM: [49]
22.8 µM: [24]
> 81.2 µM: [15]
> 55.1 µM: [57]
> 59 µM: [25]
> 85.7 µM: [36]
68.2 µM: [6]
> 76.6 µM: [12]
not listed: [37]
> 100 µM: all other assays above
